Experimental findings from US20250236617A1, “BICYCLIC TETRAHYDROTHIAZEPINE DERIVATIVES” (Hoffmann-La Roche Inc., priority 2022, published 2025) are described below.

Assay [1] deals with DGKzeta (hDGKzeta(1-928)-N-His) (Homo sapiens (Human), UniProt Q13574). The assay can be described thus: In vitro DGK inhibition assay, ADP-Glo (in house), DGKzeta. It counts as biochemical. Conditions: DLG liposomes, 50 μM ATP, 2 nM enzyme, 1 hour reaction. How it is done:
(§1) DGK α and ζ kinases use ATP to phosphorylate the substrate 1,2-dilauroyl-sn-glycerol (DLG, incorporated in the liposomes). ATP is converted to ADP as a result of this enzymatic reaction.
(§2) After the kinase reaction, an ATP-depletion reagent is added to terminate the kinase reaction and deplete any remaining ATP, leaving only ADP. Second, a detection reagent is added to simultaneously convert ADP to ATP and allow the newly synthesized ATP to be converted to light using a coupled luciferase/luciferin reaction.
(§3) Purification of both enzymes was performed as previously described by Takahashi et al., PeerJ, 2018 (Takahashi, D.; Sakane, F. Expression and purification of human diacylglycerol kinase alpha from baculovirus-infected insect cells for structural studies. PeerJ 2018, 6, No. e5449).
(§4) A concentrated liposome solution was prepared in assay buffer without DTT and BSA: 2 mM of DLG in 21 mM of total liposome (2 mM DLG/8 mM PS/11 mM PC). The reaction mixtures contain the assay buffer with a final DLG concentration of 125 uM ATP concentrations of 25 μM (for DGKA assay) or 50 μM (for DGKZ assay). The reactions were started by addition of DGK α and ζ kinases at 4 nM and 2 nM final concentrations, respectively. After 1 hour reaction, the amount of ADP formed was detected with the ADP-Glo kinase assay (Promega) according to the manufacturer instructions. Compounds were added in 11-points dose response, starting at […], 1:3 dilutions, with a final DMSO concentration of 2%. The multidrop combi was used as a liquid handler and luminescence was read with 0.5 s by the envision reader (PE).
In general terms: ADP-Glo turns the ADP formed in a reaction into a luminescent signal.

In assay [2] the test system is primary human T-cells. The assay can be described thus: T-cell proliferation assay (CellTiter-Glo). To be noted: CD3 condition; for Emax proliferation (% activation): 5 days, 20 μM reference compound A1 = 100%; for pEC50: proliferation after 5 days, CellTiter-Glo, read-out: Tcell Proliferation CD3 EC50. In kind it is cell-based. For orientation: ATP-based viability assays read luminescence as a measure of living cells.

Assay [3] has as its system primary human T-cells. Description: IL2 secretion measurements in CD3-stimulated T-cells. It counts as cell-based. Conditions: CD3 condition; for Emax IL2 (% activation): 24 hours, 20 μM reference compound A1 = 100%; for pEC50: IL2 secretion after 24 hours, read-out: Tcell IL2 CD3 EC50. A digest of the protocol: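 Expanded primary human T-cells (100 k/well, RPMI + 5% human serum) on plate-bound anti-CD3 (donor-titrated) or PBS counter-screen wells, 5–6 pt dose response from 20 or 10 μM top (dilution factor 3.333), 0.2% DMSO final. IL-2 in 24 h supernatant by ProQuantum immunoassay or ELISA. Normalised to DMSO (0%) and 20 μM reference A1 (100%); EC50 and Emax from sigmoidal fit.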

Assay [4] has as its target DGKalpha (hDGKalpha(1-735)-N-His) (Homo sapiens (Human), UniProt P23743). Description: In vitro DGK inhibition assay, ADP-Glo (in house), DGKalpha. Conditions: DLG liposomes, 25 μM ATP, 4 nM enzyme, 1 hour reaction. In kind it is biochemical. How it is done: as §1, §2, §3, §4

pEC50, pIC50: −log10 of the molar value.

Sequence of DGKzeta (hDGKzeta(1-928)-N-His) (Q13574 whole entry): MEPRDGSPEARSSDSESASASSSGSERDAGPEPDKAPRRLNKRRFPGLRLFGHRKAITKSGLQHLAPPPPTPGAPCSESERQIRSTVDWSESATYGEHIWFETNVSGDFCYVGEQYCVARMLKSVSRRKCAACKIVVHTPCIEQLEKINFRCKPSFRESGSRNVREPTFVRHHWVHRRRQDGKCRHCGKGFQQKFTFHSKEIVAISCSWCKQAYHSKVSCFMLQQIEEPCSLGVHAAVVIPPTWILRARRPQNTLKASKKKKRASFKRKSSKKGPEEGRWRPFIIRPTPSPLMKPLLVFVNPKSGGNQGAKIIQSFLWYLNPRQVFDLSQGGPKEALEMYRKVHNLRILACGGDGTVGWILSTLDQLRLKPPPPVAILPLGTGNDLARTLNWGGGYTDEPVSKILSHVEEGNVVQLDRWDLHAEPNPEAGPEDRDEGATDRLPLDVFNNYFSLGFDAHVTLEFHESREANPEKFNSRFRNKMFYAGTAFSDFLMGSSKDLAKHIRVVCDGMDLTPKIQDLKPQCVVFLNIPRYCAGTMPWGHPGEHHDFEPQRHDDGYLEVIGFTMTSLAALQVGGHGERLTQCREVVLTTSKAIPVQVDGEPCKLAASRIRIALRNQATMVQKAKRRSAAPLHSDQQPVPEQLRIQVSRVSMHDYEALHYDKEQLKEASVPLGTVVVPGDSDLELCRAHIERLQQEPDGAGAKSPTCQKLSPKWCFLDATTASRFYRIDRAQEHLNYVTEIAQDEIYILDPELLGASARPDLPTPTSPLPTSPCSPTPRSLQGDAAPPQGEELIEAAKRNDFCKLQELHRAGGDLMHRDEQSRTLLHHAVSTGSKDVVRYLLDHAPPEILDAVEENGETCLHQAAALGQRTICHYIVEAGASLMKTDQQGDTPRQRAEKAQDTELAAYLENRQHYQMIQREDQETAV
Sequence of DGKalpha (hDGKalpha(1-735)-N-His) (P23743 whole entry): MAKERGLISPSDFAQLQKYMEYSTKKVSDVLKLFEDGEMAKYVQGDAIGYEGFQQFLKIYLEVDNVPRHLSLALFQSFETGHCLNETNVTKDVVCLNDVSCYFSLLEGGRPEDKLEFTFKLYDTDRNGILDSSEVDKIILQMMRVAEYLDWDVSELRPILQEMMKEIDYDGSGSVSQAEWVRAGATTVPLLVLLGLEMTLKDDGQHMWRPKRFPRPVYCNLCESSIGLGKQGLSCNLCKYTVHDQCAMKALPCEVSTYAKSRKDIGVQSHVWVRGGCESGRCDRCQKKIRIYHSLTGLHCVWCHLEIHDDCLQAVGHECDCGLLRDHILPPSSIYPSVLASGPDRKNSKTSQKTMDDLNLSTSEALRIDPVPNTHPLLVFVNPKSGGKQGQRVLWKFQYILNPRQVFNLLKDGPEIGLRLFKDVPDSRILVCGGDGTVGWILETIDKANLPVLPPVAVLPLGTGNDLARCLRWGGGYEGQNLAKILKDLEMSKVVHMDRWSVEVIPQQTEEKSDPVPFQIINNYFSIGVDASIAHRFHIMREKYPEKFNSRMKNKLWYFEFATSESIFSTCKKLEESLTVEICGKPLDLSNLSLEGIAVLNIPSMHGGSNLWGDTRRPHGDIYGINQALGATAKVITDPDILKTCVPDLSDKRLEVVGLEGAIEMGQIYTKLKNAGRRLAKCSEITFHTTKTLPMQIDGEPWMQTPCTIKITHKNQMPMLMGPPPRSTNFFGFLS

Regarding `COc1ccc(-c2ccc(CN3C(=O)[C@@H](N)CS(=O)(=O)c4cc(F)c(-c5cncc(C(C)(C)C)c5)cc43)cc2)cc1` [Example 30, (3R)-3-amino-7-(5-tert-butyl-3-pyridyl)-8-fluoro-5-[[4-(4-methoxyphenyl)phenyl]methyl]-1,1-dioxo-2,3-dihydro-1λ6,5-benzothiazepin-4-one], the negative-log IC50 (pIC50) – broadly, −log10 of the IC50, conventionally taken in molar units – is 5.59 in assay [1] and 4.54 in assay [4]. The “Emax proliferation (% activation)” value in the assay on primary human T-cells [2] was 177 % activation. The pEC50 was 6.48 with primary human T-cells [2] (Homo sapiens, T-cell, 120 h) and 6.49 in the assay with primary human T-cells [3] (Homo sapiens, T-cell). In addition, the “Emax IL2 (% activation)” value in the assay on primary human T-cells [3] was 100 % activation.

Turning to `CC(C)(C)c1cc(-c2cc3c(cc2F)S(=O)(=O)C[C@H](N)C(=O)N3Cc2ccc(Cl)cc2)cnn1` [Example 31, (3R)-3-amino-7-(6-tert-butylpyridazin-4-yl)-5-[(4-chlorophenyl)methyl]-8-fluoro-1,1-dioxo-2,3-dihydro-1λ6,5-benzothiazepin-4-one], the pIC50 was 5.41 in assay [1] and 4.45 in assay [4]. In the assay with primary human T-cells [2], the “Emax proliferation (% activation)” value worked out at 112 % activation. Also, the pEC50 with primary human T-cells [2] (Homo sapiens, T-cell, 120 h) is 6.30; in the assay on primary human T-cells [3] (Homo sapiens, T-cell), 5.96. Further, in the assay on primary human T-cells [3], the “Emax IL2 (% activation)” value stood at 80 % activation.

With `CC(C)(C)c1cc(-c2cc3c(cc2F)S(=O)(=O)C[C@H](N)C(=O)N3Cc2ccc(-c3ccc(C(F)(F)F)cn3)cc2)cnn1` [Example 32, (3R)-3-amino-7-(6-tert-butylpyridazin-4-yl)-8-fluoro-1,1-dioxo-5-[[4-[5-(trifluoromethyl)-2-pyridyl]phenyl]methyl]-2,3-dihydro-1λ6,5-benzothiazepin-4-one], the negative logarithm of the IC50 (pIC50) in assay [1] was 5.49; in assay [4], 4.89. Moreover, the “Emax proliferation (% activation)” value with primary human T-cells [2] was determined as 164 % activation. The pEC50 is 6.36 with primary human T-cells [2] (Homo sapiens, T-cell, 120 h) and 6.02 with primary human T-cells [3] (Homo sapiens, T-cell). In addition, the “Emax IL2 (% activation)” value in the assay on primary human T-cells [3] was found to be 53 % activation.

Take `N[C@H]1CS(=O)(=O)c2cc(F)c(-c3cnnc(OCC(F)(F)F)c3)cc2N(Cc2ccc(-c3noc(C(F)(F)F)n3)cc2)C1=O` [Example 33, (3R)-3-amino-8-fluoro-1,1-dioxo-7-[6-(2,2,2-trifluoroethoxy)pyridazin-4-yl]-5-[[4-[5-(trifluoromethyl)-1,2,4-oxadiazol-3-yl]phenyl]methyl]-2,3-dihydro-1λ6,5-benzothiazepin-4-one]: the figures for the pIC50 in assay [1] and in assay [4] were 4.70 and 4.65, respectively. Moreover, the “Emax proliferation (% activation)” value in the assay with primary human T-cells [2] is on record as 103 % activation. The pEC50 in the assay with primary human T-cells [2] (Homo sapiens, T-cell, 120 h) was 6.53; with primary human T-cells [3] (Homo sapiens, T-cell), 5.65. The “Emax IL2 (% activation)” value in the assay on primary human T-cells [3] is 154 % activation.

Regarding `CC(C)(C)c1cc(-c2cc3c(cc2F)S(=O)(=O)C[C@H](N)C(=O)N3Cc2ccc(-c3noc(C(F)(F)F)n3)cc2)cnn1` [Example 34, (3R)-3-amino-7-(6-tert-butylpyridazin-4-yl)-8-fluoro-1,1-dioxo-5-[[4-[5-(trifluoromethyl)-1,2,4-oxadiazol-3-yl]phenyl]methyl]-2,3-dihydro-1λ6,5-benzothiazepin-4-one], the pIC50 in assay [1] is 5.12; in assay [4], 4.87. Also, in the assay on primary human T-cells [2], the “Emax proliferation (% activation)” value was 127 % activation. The pEC50 in the assay on primary human T-cells [2] (Homo sapiens, T-cell, 120 h) is 6.44; with primary human T-cells [3] (Homo sapiens, T-cell), 5.85. In addition, in the assay with primary human T-cells [3], the “Emax IL2 (% activation)” value stood at 96 % activation.

Compound `CC(C)(C)c1cc(-c2cc3c(cc2F)S(=O)(=O)C[C@@H](N)C(=O)N3Cc2ccc(-c3noc(C(F)(F)F)n3)cc2)cnn1` [Example 35] gave a pIC50 in assay [1] of 4.76. Further, in the assay with primary human T-cells [2], the “Emax proliferation (% activation)” value amounted to 132 % activation and the pEC50 is 5.98. Moreover, in the assay on primary human T-cells [3], the “Emax IL2 (% activation)” value worked out at 480 % activation and the pEC50 was 5.50. Moreover, the pIC50 in assay [4] was 4.70.

Consider `CC(C)(C)c1nncc(-c2cc3c(cc2F)S(=O)(=O)C[C@H](N)C(=O)N3Cc2ccc(-c3noc(C(F)(F)F)n3)cc2)n1` [Example 36, (3R)-3-amino-8-fluoro-1,1-dioxo-7(3R)-3-amino-7-(3-tert-butyl-1,2,4-triazin-5-yl)-8-fluoro-1,1-dioxo-5-[[4-[5-(trifluoromethyl)-1,2,4-oxadiazol-3-yl]phenyl]methyl]-2,3-dihydro-1λ6,5-benzothiazepin-4-one], for which the results for the pIC50 in assay [1] and in assay [4] were 5.82 and 4.61, respectively. The “Emax proliferation (% activation)” value in the assay with primary human T-cells [2] is reported as 108 % activation. Further, the pEC50 in the assay with primary human T-cells [2] (Homo sapiens, T-cell, 120 h) is 5.87; in the assay on primary human T-cells [3] (Homo sapiens, T-cell) it was 5.81. In addition, the “Emax IL2 (% activation)” value with primary human T-cells [3] is recorded as 88 % activation.
